Results reported in ChEMBL document CHEMBL3616450, “Synthesis of oxygenated oleanolic and ursolic acid derivatives with anti-inflammatory properties” (Bioorg Med Chem Lett, 2015).
Active and inactive are the calls of the source. The rule behind the calls is not given here.

Columns and labels:
Type in all cases: functional, organism-based
Mus musculus [1] = experiment: Antiinflammatory activity in […] mouse assessed as inhibition of TPA-induced IL-23 mRNA expression in epidermis at 2 umol administered topically 30 mins prior to TPA challenge for twice weekly over 2 weeks measured 6 hrs post last TPA challenge by qRT-PCR analysis
Mus musculus [2] = experiment: Antiinflammatory activity in […] mouse assessed as inhibition of TPA-induced IL-1beta mRNA expression in epidermis at 2 umol administered topically 30 mins prior to TPA challenge for twice weekly over 2 weeks measured 6 hrs post last TPA challenge by qRT-PCR analysis
Mus musculus [3] = experiment: Antiinflammatory activity in […] mouse assessed as inhibition of TPA-induced IL-6 mRNA expression in epidermis at 2 umol administered topically 30 mins prior to TPA challenge for twice weekly over 2 weeks measured 6 hrs post last TPA challenge by qRT-PCR analysis
Mus musculus [4] = experiment: Antiinflammatory activity in […] mouse assessed as inhibition of TPA-induced IL-1alpha mRNA expression in epidermis at 2 umol administered topically 30 mins prior to TPA challenge for twice weekly over 2 weeks measured 6 hrs post last TPA challenge by qRT-PCR analysis

Structure (SMILES)	inhibition (Mus musculus [1])	inhibition (Mus musculus [2])	inhibition (Mus musculus [3])	inhibition (Mus musculus [4])
CC1(C)CC[C@]2(C(=O)O)CC[C@]3(C)C(=CC[C@@H]4[C@@]5(C)C[C@@H](O)[C@@H](O)C(C)(C)[C@@H]5CC[C@]43C)[C@@H]2C1	inactive	inactive	inactive	inactive
C[C@H]1[C@H](C)CC[C@]2(C(=O)O)CC[C@]3(C)C(=CC[C@@H]4[C@@]5(C)C[C@@H](O)[C@@H](O)C(C)(C)[C@@H]5CC[C@]43C)[C@H]12	Active	Active	Active	Active
C[C@H]1[C@H](C)CC[C@]2(C(=O)O)CC[C@]3(C)C(=CC[C@@H]4[C@@]5(C)C[C@@H](O)[C@H](O)C(C)(C)[C@@H]5CC[C@]43C)[C@H]12	Active	Active	Active	Active
CC1(C)CC[C@]2(C(=O)O)CC[C@]3(C)C(=CC[C@@H]4[C@@]5(C)CC[C@H](O)C(C)(C)[C@@H]5CC[C@]43C)[C@@H]2C1	inactive	inactive	inactive	inactive
C[C@H]1[C@H](C)CC[C@]2(C(=O)O)CC[C@]3(C)C(=CC[C@@H]4[C@@]5(C)CC[C@H](O)C(C)(C)[C@@H]5CC[C@]43C)[C@H]12	inactive	inactive	inactive	inactive
CC1(C)CC[C@]2(C(=O)O)CC[C@]3(C)C(=CC[C@@H]4[C@@]5(C)C[C@@H](O)[C@H](O)C(C)(C)[C@@H]5CC[C@]43C)[C@@H]2C1	Active	Active	Active	Active
